In BindingDB's records for patent US9598446 (Achillion Pharmaceuticals, 2017) one finds IC50 data, which are given here for one molecule.

This assay addresses Complement factor D (Homo sapiens, UniProt P00746). Kind of assay: Factor D Assay. The protocol:
Human factor D (purified from human serum, Complement Technology, Inc.) at 80 nM final concentration is incubated with test compound at various concentrations for 5 minutes at room temperature in 50 mM Tris, 1M NaCl, pH 7.5. A synthetic substrate Z-L-Lys-SBz1 and DTNB (Ellman's reagent) are added to final concentrations of 100 μM each. The increase in color is recorded at OD405 nm in a microplate in kinetic mode over 30 minutes with 30 second time points in a […]. IC50 values are calculated by non-linear regression from the percentage of inhibition of complement factor D activity as a function of test compound concentration.

The structures appear in SMILES notation.

Complement factor D, sequence (P00746 whole entry): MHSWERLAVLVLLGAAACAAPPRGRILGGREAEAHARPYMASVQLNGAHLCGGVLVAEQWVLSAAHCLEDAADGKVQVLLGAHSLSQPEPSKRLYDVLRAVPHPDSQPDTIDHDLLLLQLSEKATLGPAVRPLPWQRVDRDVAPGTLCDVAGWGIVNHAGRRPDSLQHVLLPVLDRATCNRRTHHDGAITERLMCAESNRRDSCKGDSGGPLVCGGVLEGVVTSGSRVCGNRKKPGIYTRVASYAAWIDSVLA

Regarding `CC(=O)c1cn(CC(=O)N2C[C@H](F)C[C@H]2C(=O)Nc2cccc(-c3ccccc3Cl)c2F)c2ccc(N(COC(=O)C(C)(C)C)c3cncnc3)cc12` [US9598446, Compound 15], the IC50 entry is “in the range around 5.5 µM”.
